The source of these data is patent publication US7230002B2, “Dipeptidyl peptidase IV inhibitors; processes for their preparation and compositions thereof” (Glenmark Pharmaceuticals Ltd., priority 2004, dated 2007).

SMILES strings stand for the structures. Structures can show the parent of a compound that is named as a salt.

In the first test the target is T1, human recombinant Dipeptidyl peptidase IV enzyme (Homo sapiens, UniProt P27487).
T1 construct: purchased R & D Systems
T1 sequence (P27487 whole entry): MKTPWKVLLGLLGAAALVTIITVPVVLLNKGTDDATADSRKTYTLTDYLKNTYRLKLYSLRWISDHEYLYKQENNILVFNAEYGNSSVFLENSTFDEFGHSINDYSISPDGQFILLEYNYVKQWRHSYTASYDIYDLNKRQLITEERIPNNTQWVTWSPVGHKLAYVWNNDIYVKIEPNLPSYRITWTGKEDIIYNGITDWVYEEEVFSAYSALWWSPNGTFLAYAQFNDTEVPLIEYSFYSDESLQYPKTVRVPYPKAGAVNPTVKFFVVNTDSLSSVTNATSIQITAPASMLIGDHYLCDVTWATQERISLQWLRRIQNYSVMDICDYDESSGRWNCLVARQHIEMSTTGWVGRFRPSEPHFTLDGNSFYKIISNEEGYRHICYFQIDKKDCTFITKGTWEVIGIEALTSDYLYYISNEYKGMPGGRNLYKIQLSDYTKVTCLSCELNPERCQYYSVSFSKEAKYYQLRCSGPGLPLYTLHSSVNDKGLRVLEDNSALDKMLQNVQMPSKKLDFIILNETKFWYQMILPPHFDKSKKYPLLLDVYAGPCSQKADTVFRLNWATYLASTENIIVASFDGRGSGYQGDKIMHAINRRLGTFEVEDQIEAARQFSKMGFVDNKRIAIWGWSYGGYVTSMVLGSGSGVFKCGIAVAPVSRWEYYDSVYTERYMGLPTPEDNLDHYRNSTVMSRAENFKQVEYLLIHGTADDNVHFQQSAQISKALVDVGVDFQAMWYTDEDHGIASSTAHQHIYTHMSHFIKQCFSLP
Nature of the test: In-vitro DPP-IV assay (cleavage of Gly-Pro-AMC). To be noted: at 300 nM, n = 3, read-out: DPP-IV inhibition, percent inhibition at 300 nM. In kind it is biochemical. How it is done: Protocol for In-Vitro DPP-IV Assay
DPPIV activity was determined by the cleavage rate of 7-amino-4-methyl coumarin (AMC) from synthetic substrate Glycyl-Prolyl-AMC. In brief, the assay was conducted by adding 10 ng of human recombinant Dipeptidyl peptidase IV enzyme (DPPIV, available commercially from R & D Systems) in 50 μl of the assay buffer (25 mM Tris, pH 7.4, 140 mM NaCl, 10 mM KCl, 1% BSA) to 96 well black flat bottom microtiter plates. The reaction was initiated by adding 50 μl of 100 μM substrate Gly-Pro-AMC. The incubation was carried out in the kinetic mode at 30° C. for 30 minutes. Fluorescence was measured using Fluorostar at excitation filter of 380 nm and emission filter of 460 nm). Test compounds and solvent controls were added as 1 μl additions. A standard curve of free amino methyl coumarin (AMC) was generated using 0–100 μM AMC in the assay buffer. The curve generated, which was linear was used for the interpolation of catalytic activity.
Test compounds dissolved in DMSO at 5–6 concentrations were tested in duplicate along with the solvent control and blank samples. Percent inhibition was calculated at each concentration with respect to the solvent control sample (no test compound added). IC50 values were calculated from 3 experiments using the prism software.
For `N#Cc1ccc(OC[C@H]2CC[C@@H](NCC(=O)N3CCC[C@H]3C#N)C2)c2oc3ccccc3c12` [Example-51, (2S)-1-{2-[(3S,1R)-3-(1-Cyanodibenzo[b,d]furan-4-yloxymethyl)cyclopentylamino]-acetyl}-pyrrolidine-2-carbonitrile], the inhibition at 0.3 µM was 25%.

The same test, now with this note: n = 3, substrate Gly-Pro-AMC, 30° C., 30 minutes, read-out: DPP-IV inhibition IC50.
Turning to `N#C[C@@H]1CCCN1C(=O)CNC1CCC(CNc2cc(F)c(F)cc2F)C1` (mixture of isomers) [Example-27, (2S)-1-{2-[(3SR,1RS)-3-(2,4,5-Trifluoroanilinomethyl)cyclopentylamino]acetyl}-pyrrolidine-2-carbonitrile], the IC50 was 17.4 nM.

For the compound `N#Cc1ccc(NCC2CCC(NCC(=O)N3CSC[C@H]3C#N)C2)nc1` (mixture of isomers) [Example-16, (4S)-3-{2-(1SR,3RS)-3-[(5-Cyano-2-pyridylaminomethyl)cyclopentylamino]acetyl}-1,3-thiazolane-4-carbonitrile dihydrochloride], the IC50 turned out to be 2.76 nM.

In the case of `N#C[C@@H]1CCCN1C(=O)CN[C@H]1CC[C@@H](CS(=O)(=O)c2ccccc2)C1` [Example-33, (2S)-1-{2-[(1S,3R)-3-Phenylsulfonylmethylcyclopentylamino]acetyl}-pyrrolidine-2-carbonitrile], the IC50 worked out at 57.3 nM.

For the compound `N#C[C@@H]1CCCN1C(=O)CNC1CCC(COc2ccc([N+](=O)[O-])cc2)C1` (mixture of isomers) [Example-43, (2S)-1-{2-[(3SR,1RS)-3-(4-Nitrophenoxymethyl)cyclopentylamino]acetyl}-pyrro-lidine-2-carbonitrile], the 50% inhibitory concentration (IC50) was 35.9 nM.

Consider `N#Cc1ccc(NCC2CCC(NCC(=O)N3CCC[C@H]3C#N)C2)nc1` (mixture of isomers) [Example-4, 6-((1SR,3RS)-3-{2-[(2S)-2-Cyanopyrrolidin-1-yl]-2-oxoethylamino}cyclopentyl-methylamino)nicotinonitrile dihydrochloride], for which the IC50 worked out at 10 nM.

For `N#Cc1ccc(OC[C@@H]2CC[C@H](NCC(=O)N3CCC[C@H]3C#N)C2)cc1` [Example-46], the 50% inhibitory concentration (IC50) was 11.6 nM.

For `N#C[C@@H]1CCCN1C(=O)CNC1CCC(CNc2ncccn2)C1` (mixture of isomers) [Example-18, (2S)-1-{2-[(3SR,1RS)-3-(2-Pyrimidinylaminomethyl)cyclopentylamino)acetyl}-pyrrolidine-2-carbonitrile], the IC50 turned out to be 9.8 nM.

For `N#Cc1ccc(NC[C@@H]2CC[C@H](NCC(=O)N3CCC[C@H]3C#N)C2)nc1` [Example-10, 6-((1R,3S)-3-{2-[(2S)-2-Cyanopyrrolidin-1-yl]-2-oxoethylamino}cyclopentylmethyl-amino)nicotinonitrile], the half-maximal inhibitory concentration (IC50) amounted to 7.81 nM.

Consider `N#Cc1ccc(NCC2CCC(NCC(=O)N3CCC[C@H]3C#N)C2)nc1` (mixture of isomers) [Example-7, 6-((1SR,3RS)-3-{2-[(2S)-2-Cyanopyrrolidin-1-yl]-2-oxoethylamino}cyclopentyl-methylamino)nicotinonitrile citrate], for which the IC50 was 11.7 nM.

As to `N#Cc1ccc(NC[C@@H]2CC[C@@H](NCC(=O)N3CCC[C@H]3C#N)C2)nc1` (racemic) [Example-13, 6-((1RS,3RS)-3-{2-[(2S)-2-Cyanopyrrolidin-1-yl]-2-oxoethylamino}cyclopentyl-methylamino)nicotinonitrile], the IC50 was 12.1 nM.

On to `N#C[C@@H]1CCCN1C(=O)CN[C@H]1CC[C@@H](COc2ccc([N+](=O)[O-])cc2)C1` [Example-45, (2S)-1-{2-[(3R,1S)-3-(4-Nitrophenoxymethyl)cyclopentylamino]acetyl}-pyrrolidine-2-carbonitrile], for which the IC50 was 49.9 nM.

On to `N#C[C@@H]1CCCN1C(=O)CN[C@@H]1CC[C@H](CSc2nc3ccccc3[nH]2)C1` [Example-42, (2S)-1-{2-[(3S,1R)-3-(1H-Benzo[d]imidazol-2-ylsulfanylmethyl)cyclopentylamino]-acetyl}-pyrrolidine-2-carbonitrile], for which the IC50 is 26.8 nM.

As to `N#C[C@@H]1CCCN1C(=O)CN[C@@H]1CC[C@H](CNc2ncccn2)C1` [Example-20, (2S)-1-{2-[(3S,1R)-3-(2-Pyrimidinylaminomethyl)cyclopentylamino)acetyl}-pyrrolidine-2-carbonitrile], the IC50 stood at 41.3 nM.

In the case of `N#C[C@@H]1C[C@H](F)CN1C(=O)CN[C@@H]1CC[C@H](CNc2ccc([N+](=O)[O-])cc2F)C1` [Example-26], the IC50 worked out at 5.16 nM.

For `N#Cc1ccc(NCC2C=CC(NCC(=O)N3CCC[C@H]3C#N)C2)nc1` (mixture of isomers) [Example-12], the IC50 was 11.2 nM.

Take `N#Cc1ccc(NC[C@H]2CC[C@@H](NCC(=O)N3CCC[C@H]3C#N)C2)nc1` [Example-9, 6-((1S,3R)-3-{2-[(2S)-2-Cyanopyrrolidin-1-yl]-2-oxoethylamino}cyclopentylmethyl-amino)nicotinonitrile dihydrochloride]: the IC50 is 6.27 nM.

On to `N#C[C@@H]1CCCN1C(=O)CN[C@H]1CC[C@@H](CSc2ccc(F)cc2)C1` [Example-34, (2S)-1-{2-[(1S,3R)-3-(4-Fluorophenylsulfanylmethyl)cyclopentylamino]acetyl}-pyrro-lidine-2-carbonitrile], for which the IC50 amounted to 26.1 nM.
